Here are results for 21 molecules from patent US20250268903A1, “RXFP1 AGONISTS” (BRISTOL-MYERS SQUIBB COMPANY, priority 2021, published 2025).

The assay concerns the target T1, human RXFP1 (Homo sapiens, UniProt Q9HBX9).
T1 construct: expressed in transfected cells
T1 sequence (Q9HBX9 1-757): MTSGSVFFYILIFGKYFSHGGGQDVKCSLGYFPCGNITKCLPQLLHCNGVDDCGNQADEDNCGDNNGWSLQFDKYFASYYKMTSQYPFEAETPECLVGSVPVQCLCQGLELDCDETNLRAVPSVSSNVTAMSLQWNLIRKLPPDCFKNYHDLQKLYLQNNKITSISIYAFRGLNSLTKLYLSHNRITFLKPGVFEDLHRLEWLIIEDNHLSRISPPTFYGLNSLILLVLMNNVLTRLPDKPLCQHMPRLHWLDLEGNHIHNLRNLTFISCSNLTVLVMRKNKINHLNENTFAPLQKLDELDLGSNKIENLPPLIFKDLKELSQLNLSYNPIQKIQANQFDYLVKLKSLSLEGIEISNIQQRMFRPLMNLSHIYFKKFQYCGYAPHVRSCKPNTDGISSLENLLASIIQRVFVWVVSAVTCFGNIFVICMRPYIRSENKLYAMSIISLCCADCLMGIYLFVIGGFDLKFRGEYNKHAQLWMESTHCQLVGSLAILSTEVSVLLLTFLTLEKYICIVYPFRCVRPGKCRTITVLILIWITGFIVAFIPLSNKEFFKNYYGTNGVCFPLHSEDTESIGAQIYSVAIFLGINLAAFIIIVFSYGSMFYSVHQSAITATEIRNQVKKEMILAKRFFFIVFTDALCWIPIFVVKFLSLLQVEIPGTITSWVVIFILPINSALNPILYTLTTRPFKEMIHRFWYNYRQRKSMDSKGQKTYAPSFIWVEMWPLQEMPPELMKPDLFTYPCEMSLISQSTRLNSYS
Briefly: hRXFP1 HEK293 cAMP assay (HTRF). Conditions: HEK293 cells stably expressing human RXFP1, 30 min at room temperature. The format is cell-based. The method in brief:
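Intracellular cAMP was read by HTRF, with potency fitted to a 4-parameter logistic curve. Compound exposure (0.010 nM–50 μM final, 2% DMSO) lasted 30 min at room temperature. Cells were hRXFP1-HEK293 at 1500 per well in IBMX-containing (0.5 mM) HEPES-buffered HBSS.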

As a reminder, the EC50 is the midpoint of the concentration-response curve. Low readings indicate greater potency, high ones weaker potency. In turn, `COc1ccc(CCCCCCOC(=O)NC2CCC2)cc1C(=O)N[C@@H]1C2CCC(/C2=C/C(F)(F)F)[C@@H]1C(=O)Nc1ccc(F)c(C(F)(F)F)c1` (stereo partly drawn) [Example 101, 6-(3-{[(2R,3S,7Z)-3-{[4-fluoro-3-(trifluoromethyl)phe-nyl]carbamoyl}-7-(2,2,2-trifluoroethylidene)bi-cyclo[2.2.1]heptan-2-yl]carbamoyl}-4-methoxyphenyl)hex-yl N-cyclobutylcarbamate] yielded an EC50 of 194 nM. That is a sub-micromolar value.
For `COc1ccc(C2CC(C(=O)N3CCC(O)CC3)C2)cc1C(=O)N[C@H]1[C@@H](C(=O)Nc2ccc(F)c(C(F)(F)F)c2)[C@H]2CC[C@@H]1/C2=C\C1CC1` (stereo partly drawn) [Example 327] the value was 26.1 nM; for `COc1ccc(COC2CCC(OCc3ccccc3)CC2)cc1C(=O)N[C@@H]1C2CCC(/C2=C/C2CC2)[C@@H]1C(=O)Nc1ccc(F)c(C(F)(F)F)c1` (single isomer, unassigned) [Example 24], 1810 nM.
For `COc1ccc(COC2CC=CC2)cc1C(=O)N[C@H]1[C@@H](C(=O)Nc2ccc(F)c(C(F)(F)F)c2)[C@H]2CC[C@@H]1/C2=C\C1CC1` [Example 285, (1R,2S,3R,4R,7Z)-3-{5-[(cyclopent-3-en-1-yloxy)methyl]-2-methoxybenzamido}-(cyclopropylmethyl-idene)-N-[4-fluoro-3-(trifluoromethyl)phenyl]bicyclo [2.2.1]heptane-2-carboxamide], a half-maximal response (EC50) required 226 nM.
With `COc1ccc(C2CCCC2)cc1C(=O)N[C@@H]1C2CCC(/C2=C/C(F)(F)F)[C@@H]1C(=O)Nc1ccc(F)c(C(F)(F)F)c1` (stereo partly drawn) [Example 47, (2S,3R,7Z)-3-(5-cyclopentyl-2-methoxybenzamido)-N-[4-fluoro-3-(trifluoroemthyl)phe-nyl]-7-(2,2,2-trifluoroethylidene) bicyclo[2.2.1]heptane-2-carboxamide], the EC50 was 926 nM.
In turn, “(1R,4R,7Z)-7- (cyclopentyl- methylidene)- N-[4-fluoro- 3-(trifluoromethyl) phenyl]-3-[5-(3- hydroxy-3- methylbutyl)-2- methoxybenzamido] bicyclo[2.2.1]heptane- 2-carboxamide [Example 260]” registered an EC50 of 324 nM.
For `COc1c(F)cc(C(=O)NCC2(S(C)(=O)=O)CC2)cc1C(=O)N[C@H]1[C@@H](C(=O)N[C@H](C)C2(C)CC2)[C@H]2CC[C@@H]1/C2=C\C1CC1` [Example 369, N3-[(1R,2R,3S,4R,7Z)-7-(cyclopropyl-methylidene)-3-{[(1R)-1-(1-methylcyclopropyl)ethyl]carbamoyl}bicyclo[2.2.1]heptan-2-yl]-5-fluoro-N1-[(1-methanesulfonyl-cyclopropyl)methyl]-4-methoxybenzene-1,3-dicarboxamide] the value was 3 nM; for `COCC/C=C1\C2CCC1[C@H](C(=O)Nc1ccc(F)c(C(F)(F)F)c1)C2NC(=O)c1cc(CCC(C)(C)O)ccc1OC` (stereo partly drawn) [Example 162, (7Z)-N-[4-fluoro-3-(trifluoromethyl)phe-nyl]-3-[5-(3-hydroxy-3-methylbutyl)-2-methoxybenzamido]-7-(3-methoxypropylidene) bicyclo[2.2.1]heptane-2-carboxamide], 1240 nM; for `COc1c(F)cc(C(=O)N2CC(S(C)(=O)=O)C2)cc1C(=O)N[C@H]1[C@@H](C(=O)Nc2ccc(F)c(C(F)(F)F)c2)[C@H]2CC[C@@H]1/C2=C\C1CCCC1` [Example 365, (1R,2S,3R,4R,7Z)-7-(cyclopentyl-methylidene)-N-[4-fluoro-3-(trifluoromethyl)phenyl]-3-[3-fluoro-5-(3-methanesulfonyl-azetidine-1-carbonyl)-2-methoxybenzamido] bicyclo[2.2.1]heptane-2-carboxamide], 2.8 nM.
For `COc1ccc(/C=C/CCO)cc1C(=O)N[C@@H]1C2CCC(C2=C(C)C)[C@@H]1C(=O)Nc1ccc(F)c(C(F)(F)F)c1` (stereo partly drawn) [Example 32] the value was 740 nM; for `COc1c(F)cc(C2CC3CC(CO)CC3C2)cc1C(=O)N[C@H]1[C@@H](C(=O)Nc2ccc(F)c(C(F)(F)F)c2)[C@H]2CC[C@@H]1/C2=C\C1CCCC1` (stereo partly drawn) [Example 370, (1R,2S,3R,4R,7Z)-7-(cyclopentyl-methylidene)-N-[4-fluoro-3-(trifluoromethyl)phenyl]-3-{3-fluoro-5-[5-(hydroxymethyl)-octahydropentalen-2-yl]-2-methoxybenzamido} bicyclo[2.2.1]heptane-2-carboxamide], 9.7 nM.
For `COc1ccc(C(=O)N2CCC3(CC2)COC3)cc1C(=O)N[C@H]1[C@@H](C(=O)Nc2ccc(F)c(C(F)(F)F)c2)[C@H]2CC[C@@H]1/C2=C\C1CC1` [Example 246, (1R,2S,3R, 4R,7Z)-7-(cyclopropyl-methylidene)-N-[4-fluoro-3-(trifluoromethyl)phenyl]-3-(2-methoxy-5-{2-oxa-7-azaspiro[3.5]nonane-7-carbonyl}benzamido) bicyclo[2.2.1] heptane-2-carboxamide], the EC50 worked out at 13.7 nM.
Under `COc1ccc(S(=O)(=O)NC2CCOC2)cc1C(=O)NC1C2CCC(/C2=C/C(F)(F)F)[C@@H]1C(=O)Nc1ccc(F)c(C(F)(F)F)c1` (stereo partly drawn) [Example 198, (2S,3R,7Z)-N-[4-fluoro-3-(trifluoromethyl)phe-nyl]-3-{2-methoxy-5-[(oxolan-3-yl)sulfamoyl]benza-mido}-7-(2,2,2-trifluoroethylidene)bi-cyclo[2.2.1]heptane-2-carboxamide] stands 1920 nM.
For `COc1ccc(C2CC3CC(O)CC32)cc1C(=O)N[C@H]1[C@@H](C(=O)Nc2ccc(F)c(C(F)(F)F)c2)[C@H]2CC[C@@H]1/C2=C\C1CC1` (single isomer, unassigned) [Example 340] the value was 78.5 nM.
For `COc1ccc(C(=O)NC(C)(C)C)cc1C(=O)N[C@H]1[C@@H](C(=O)Nc2ccc(F)c(C(F)(F)F)c2)[C@H]2CC[C@@H]1/C2=C\C1CC1` [Example 236, N1-tert-butyl-N3-[(1R,2R,3S,4R,7Z)-7-(cyclopropyl-methylidene)-3-{[4-fluoro-3-(trifluoromethyl)phenyl]carbamoyl}bicyclo[2.2.1]heptan-2-yl]-4-methoxybenzene-1,3-dicarboxamide] the value was 234 nM; for `COc1ccc(CCCNCC(O)(C(F)(F)F)C(F)(F)F)cc1C(=O)N[C@H]1[C@@H](C(=O)Nc2ccc(F)c(C(F)(F)F)c2)[C@H]2CC[C@@H]1/C2=C\C(F)(F)F` [Example 117, (1R,2S,3R,4R,Z)—N-(4-fluoro-3-(trifluoromethyl)phenyl)-3-(2-methoxy-5-(3-((3,3,3-trifluoro-2-hydroxy-2-(trifluoromethyl)propyl)amino)propyl)benzamido)-7-(2,2,2-trifluoroethylidene) bicyclo[2.2.1]heptane-2-carboxamide], 1240 nM; for `COc1ccc(CCCNC[C@H](O)C(F)(F)F)cc1C(=O)N[C@@H]1C2CCC(/C2=C/C(F)(F)F)[C@@H]1C(=O)Nc1ccc(F)c(C(F)(F)F)c1` (stereo partly drawn) [Example 118, (2S,3R,7Z)-N-[4-fluoro-3-(trifluoromethyl)phe-nyl]-3-[2-methoxy-5-(3-{[(2S)-3,3,3-trifluoro-2-hydroxypropyl]amino}propyl)benzamido]-7-(2,2,2-trifluoroethylidene)bi-cyclo[2.2.1]heptane-2-carboxamide], 1780 nM.
`COc1ccc(C2CCCC(OC(=O)Nc3ccccc3)C2)cc1C(=O)N[C@@H]1C2CCC(/C2=C/C(F)(F)F)[C@@H]1C(=O)Nc1ccc(F)c(C(F)(F)F)c1` (single isomer, unassigned) [Example 42] showed an EC50 of 214 nM.
For `COc1cc(C#CCO)ccc1C(=O)N[C@@H]1C2CCC(/C2=C/C(F)(F)F)[C@@H]1C(=O)Nc1ccc(F)c(C(F)(F)F)c1` (stereo partly drawn) [Example 74, (2S,3R,7Z)-N-[4-fluoro-3-(trifluoromethyl)phe-nyl]-3-[4-(3-hydroxyprop-1-yn-1-yl)-2-methoxybenzamido]-7-(2,2,2-trifluoroethylidene)bi-cyclo[2.2.1]heptane-2-carboxamide] the value was 3550 nM; for `COc1ccc(CCCNC2CCC2)cc1C(=O)N[C@@H]1C2CCC(/C2=C/C(F)(F)F)[C@@H]1C(=O)Nc1ccc(F)c(C(F)(F)F)c1` (stereo partly drawn) [Example 122, (2S,3R,7Z)-3-{5-[3-(cyclobutylamino)pro-pyl]-2-methoxybenzamido}-N-[4-fluoro-3-(trifluoromethyl)phe-nyl]-7-(2,2,2-trifluoroethylidene)bi-cyclo[2.2.1]heptane-2-carboxamide], 2810 nM.
For `COc1ccc(C2CCCCC2)cc1C(=O)N[C@@H]1C2CCC(/C2=C/C(F)(F)F)[C@@H]1C(=O)Nc1ccc(F)c(C(F)(F)F)c1` (stereo partly drawn) [Example 39, (2S,3R,7Z)-3-(5-cyclohexyl-2-methoxybenzamido)-N-[4-fluoro-3-(trifluoromethyl)phenyl]-7-(2,2,2-trifluoroethylidene) bicyclo[2.2.1]heptane-2-carboxamide] the value was 611 nM.
